Results taken from patent US9409905B2, “Antibacterial compounds and methods for use” (PTC THERAPEUTICS, INC., priority 2011, dated 2016).
In brackets after ≈: the same amount, converted by molar mass.

Legend:
K. pneumoniae MXX1232 = test: Antibacterial activity, MIC, resistant strain (Table 4); format: cell-based; conditions: Klebsiella pneumoniae, MXX1232; resistant K. pneumoniae MMX1232, multi-drug resistant clinical isolate; read-out: MIC, MMX1232
Procedure, shortened: (§1)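 Values are MICs in μg/mL, read as the lowest compound concentration at which no growth is visible by eye. They come from a microbroth dilution method.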

A. baumannii MXX2240 = test: as above; format: cell-based; conditions: Acinetobacter baumannii, MXX2240; resistant A. baumannii MMX2240, multi-drug resistant clinical isolate; read-out: MIC, MMX2240
Procedure, shortened: as §1

[1] = system: Neisseria meningitidis (N. meningitidis) 13090; test: Antibacterial activity, MIC (Table 8); format: cell-based
Procedure, shortened: (§2)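 Broth microdilution MIC, read as the lowest drug concentration preventing macroscopically visible growth under test conditions and reported in μg/mL.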

E. coli LZ3111 = test: Antibacterial activity, MIC, quinolone resistant strain (Table 2); format: cell-based; conditions: Escherichia coli, LZ3111, read-out: MIC LZ3111
Procedure, shortened: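 Microbroth dilution method; MIC (μg/mL) is the lowest drug concentration preventing macroscopically visible growth under test conditions.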

[2] = system: Pseudomonas aeruginosa (P. aeruginosa) 27853; test: Antibacterial activity, MIC (Table 5); format: cell-based; conditions: P. aeruginosa 27853, read-out: MIC, 27853
Procedure, shortened: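 Activity was measured by microbroth dilution. The MIC, in μg/mL, is the lowest drug concentration that prevents macroscopically visible growth under the test conditions.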

[3] = system: Haemophilus influenzae (H. influenzae) 49247; test: Antibacterial activity, MIC (Table 6); format: cell-based
Procedure, shortened: as §2

[4] = system: Staphylococcus aureus (S. aureus) 29213; test: Antibacterial activity, microbroth dilution MIC (Table 1); format: cell-based; conditions: microbroth dilution, Gram-positive S. aureus 29213, read-out: MIC, 29213
Procedure, shortened: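 Using broth microdilution, MIC endpoints (μg/mL) mark where visible growth no longer appears; the panel spans sensitive and control Gram-negative strains plus a Gram-positive strain.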

[5] = system: Escherichia coli (E. coli) BAS849; test: as above; format: cell-based; conditions: microbroth dilution, super sensitive Gram-negative E. coli BAS849, read-out: MIC, BAS849
Procedure, shortened: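 Broth microdilution against S. aureus 29213, E. coli 25922 and hypersensitive E. coli BAS849. MIC in μg/mL is the lowest drug concentration preventing macroscopically visible growth under test conditions.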

[6] = system: Moraxella catarrhalis (M. catarrhalis) 25238; test: Antibacterial activity, MIC (Table 7); format: cell-based
Procedure, shortened: as §2

[7] = system: Acinetobacter baumannii (A. baumannii) BAA747; test: Antibacterial activity, MIC (Table 4); format: cell-based; conditions: A. baumannii BAA747, read-out: MIC, BAA747
Procedure, shortened: as §1

[8] = system: Klebsiella pneumoniae (K. pneumoniae) 35657; test: Antibacterial activity, MIC (Table 4); format: cell-based; conditions: K. pneumoniae 35657, read-out: MIC, 35657
Procedure, shortened: as §1

E. coli ELZ4251 = test: Antibacterial activity, MIC, multi-drug resistant clinical isolate (Table 3); format: cell-based; conditions: Escherichia coli
Procedure, shortened: (§3)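 Broth microdilution assay; MIC reported in μg/mL as the lowest drug concentration preventing macroscopically visible growth under test conditions.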

E. coli ELZ4000 = test: as above; format: cell-based; conditions: Escherichia coli, ELZ4000, read-out: MIC ELZ4000
Procedure, shortened: as §3

E. coli 25922 = test: Antibacterial activity, microbroth dilution MIC (Table 1); format: cell-based, Escherichia coli; conditions: Escherichia coli; microbroth dilution; control Gram-negative E. coli 25922 strain; read-out: MIC, 25922
Procedure, shortened: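 Lowest concentration stopping macroscopically visible growth under test conditions, by broth microdilution, defines the MIC (μg/mL).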

Row | SMILES | MIC (K. pneumoniae MXX1232) [µg/mL] | MIC (A. baumannii MXX2240) [µg/mL] | MIC [1] [µg/mL] | MIC (E. coli LZ3111) [µg/mL] | MIC [2] [µg/mL] | MIC [3] [µg/mL] | MIC [4] [µg/mL] | MIC [5] [µg/mL] | MIC [6] [µg/mL] | MIC [7] [µg/mL] | MIC [8] [µg/mL] | MIC (E. coli ELZ4251) [µg/mL] | MIC (E. coli ELZ4000) [µg/mL] | MIC (E. coli 25922) [µg/mL]
1 | CCc1c(-c2ccc3c(ccn3C)c2)[nH]c(=O)c(C(=O)O)c1O [Cpd 22, 5-ethyl-4-hydroxy-6-(1-methyl-1H-indol-5-yl)-2-oxo-1,2-dihydropyridine-3-carboxylic acid] | 12.5 to 150 (≈ 40 to 480 µM) | < 1 | < 1 | 1 to 3.5 (≈ 3.2 to 11.2 µM) | 12.5 to 150 (≈ 40 to 480 µM) | < 1 | 1 to 3.5 (≈ 3.2 to 11.2 µM) | < 1 | < 1 | < 1 | 1 to 3.5 (≈ 3.2 to 11.2 µM) | 3.5 to 12.5 (≈ 11.2 to 40 µM) | 3.5 to 12.5 (≈ 11.2 to 40 µM) | < 1
2 | CCc1c(-c2ccc3c(c2)cc(CN2CCC(C(C)(C)N)C2)n3C)[nH]c(=O)c(C(=O)O)c1O (stereo not shown) [Cpd 185, 6-(2-((3-(2-aminopropan-2-yl)pyrrolidin-1-yl)methyl)-1-methyl-1H-indol-5-yl)-5-ethyl-4-hydroxy-2-oxo-1,2-dihydropyridine-3-carboxylic acid] | 12.5 to 150 (≈ 27.6 to 331 µM) | 12.5 to 150 (≈ 27.6 to 331 µM) | < 1 | 1 to 3.5 (≈ 2.21 to 7.73 µM) | 3.5 to 12.5 (≈ 7.73 to 27.6 µM) | 1 to 3.5 (≈ 2.21 to 7.73 µM) | 12.5 to 150 (≈ 27.6 to 331 µM) | < 1 | 1 to 3.5 (≈ 2.21 to 7.73 µM) | 12.5 to 150 (≈ 27.6 to 331 µM) | 1 to 3.5 (≈ 2.21 to 7.73 µM) | 12.5 to 150 (≈ 27.6 to 331 µM) | 12.5 to 150 (≈ 27.6 to 331 µM) | 1 to 3.5 (≈ 2.21 to 7.73 µM)
3 | CCc1c(-c2ccc3c(c2)cc(CN(C)C)n3C)[nH]c(=O)c(C(=O)O)c1O [Cpd 166, 6-(2-((dimethylamino)methyl)-1-methyl-1H-indol-5-yl)-5-ethyl-4-hydroxy-2-oxo-1,2-dihydropyridine-3-carboxylic acid] | 12.5 to 150 (≈ 33.8 to 406 µM) | 1 to 3.5 (≈ 2.71 to 9.47 µM) | < 1 | 3.5 to 12.5 (≈ 9.47 to 33.8 µM) | 3.5 to 12.5 (≈ 9.47 to 33.8 µM) | < 1 | 3.5 to 12.5 (≈ 9.47 to 33.8 µM) | < 1 | < 1 | < 1 | < 1 | 3.5 to 12.5 (≈ 9.47 to 33.8 µM) | 12.5 to 150 (≈ 33.8 to 406 µM) | < 1
4 | CCc1c(-c2ccc3c(c2)cc2n3CCNC2)[nH]c(=O)c(C(=O)O)c1O [Cpd 305, 5-ethyl-4-hydroxy-2-oxo-6-(1,2,3,4-tetrahydropyrazino[1,2-a]indol-8-yl)-1,2-dihydropyridine-3-carboxylic acid] | 12.5 to 150 (≈ 35.4 to 424 µM) | 12.5 to 150 (≈ 35.4 to 424 µM) | < 1 | 3.5 to 12.5 (≈ 9.9 to 35.4 µM) | 3.5 to 12.5 (≈ 9.9 to 35.4 µM) | < 1 | 3.5 to 12.5 (≈ 9.9 to 35.4 µM) | < 1 | < 1 | 1 to 3.5 (≈ 2.83 to 9.9 µM) | < 1 | 3.5 to 12.5 (≈ 9.9 to 35.4 µM) | 12.5 to 150 (≈ 35.4 to 424 µM) | < 1
5 | CNCc1cc2cc(-c3[nH]c(=O)c(C(=O)O)c(O)c3C)ccc2n1C [Cpd 317, 4-hydroxy-5-methyl-6-(1-methyl-2-((methylamino)methyl)-1H-indol-5-yl)-2-oxo-1,2-dihydropyridine-3-carboxylic acid] | 3.5 to 12.5 (≈ 10.3 to 36.6 µM) | 1 to 3.5 (≈ 2.93 to 10.3 µM) | < 1 | < 1 | 12.5 to 150 (≈ 36.6 to 439 µM) | 1 to 3.5 (≈ 2.93 to 10.3 µM) | 12.5 to 150 (≈ 36.6 to 439 µM) | < 1 | 3.5 to 12.5 (≈ 10.3 to 36.6 µM) | 3.5 to 12.5 (≈ 10.3 to 36.6 µM) | 1 to 3.5 (≈ 2.93 to 10.3 µM) | < 1 | 1 to 3.5 (≈ 2.93 to 10.3 µM) | 1 to 3.5 (≈ 2.93 to 10.3 µM)
6 | CCc1c(-c2ccc3c(c2)cc(CNCCF)n3C)[nH]c(=O)c(C(=O)O)c1O [Cpd 201, 5-ethyl-6-(2-((2-fluoroethylamino)methyl)-1-methyl-1H-indol-5-yl)-4-hydroxy-2-oxo-1,2-dihydropyridine-3-carboxylic acid] | 12.5 to 150 (≈ 32.3 to 387 µM) | 3.5 to 12.5 (≈ 9.03 to 32.3 µM) | < 1 | 1 to 3.5 (≈ 2.58 to 9.03 µM) | 3.5 to 12.5 (≈ 9.03 to 32.3 µM) | < 1 | 3.5 to 12.5 (≈ 9.03 to 32.3 µM) | < 1 | < 1 | < 1 | < 1 | 3.5 to 12.5 (≈ 9.03 to 32.3 µM) | 3.5 to 12.5 (≈ 9.03 to 32.3 µM) | < 1
7 | CCc1c(-c2ccc3c(c2)cc(CN2CCC(N4CCCCC4)CC2)n3C)[nH]c(=O)c(C(=O)O)c1O [Cpd 251, 6-(2-(1,4′-bipiperidin-1′-ylmethyl)-1-methyl-1H-indol-5-yl)-5-ethyl-4-hydroxy-2-oxo-1,2-dihydropyridine-3-carboxylic acid] | 12.5 to 150 (≈ 25.4 to 304 µM) | 12.5 to 150 (≈ 25.4 to 304 µM) | < 1 | 3.5 to 12.5 (≈ 7.1 to 25.4 µM) | 12.5 to 150 (≈ 25.4 to 304 µM) | 1 to 3.5 (≈ 2.03 to 7.1 µM) | 3.5 to 12.5 (≈ 7.1 to 25.4 µM) | < 1 | < 1 | 3.5 to 12.5 (≈ 7.1 to 25.4 µM) | 1 to 3.5 (≈ 2.03 to 7.1 µM) | 12.5 to 150 (≈ 25.4 to 304 µM) | 12.5 to 150 (≈ 25.4 to 304 µM) | 1 to 3.5 (≈ 2.03 to 7.1 µM)
8 | CCc1c(-c2ccc3c(c2)cc(CN2CCCC2C)n3C)[nH]c(=O)c(C(=O)O)c1O (stereo not shown) [Cpd 173, 5-ethyl-4-hydroxy-6-(1-methyl-2-((2-methylpyrrolidin-1-yl)methyl)-1H-indol-5-yl)-2-oxo-1,2-dihydropyridine-3-carboxylic acid] | 12.5 to 150 (≈ 30.5 to 366 µM) | 12.5 to 150 (≈ 30.5 to 366 µM) | < 1 | 3.5 to 12.5 (≈ 8.55 to 30.5 µM) | 12.5 to 150 (≈ 30.5 to 366 µM) | < 1 | 3.5 to 12.5 (≈ 8.55 to 30.5 µM) | < 1 | < 1 | 1 to 3.5 (≈ 2.44 to 8.55 µM) | 1 to 3.5 (≈ 2.44 to 8.55 µM) | 3.5 to 12.5 (≈ 8.55 to 30.5 µM) | 12.5 to 150 (≈ 30.5 to 366 µM) | < 1
9 | CCc1c(-c2ccc3c(c2)cc(CN2CCC[C@H](N)C2)n3C)[nH]c(=O)c(C(=O)O)c1O [Cpd 253, (S)-6-(2-((3-aminopiperidin-1-yl)methyl)-1-methyl-1H-indol-5-yl)-5-ethyl-4-hydroxy-2-oxo-1,2-dihydropyridine-3-carboxylic acid] | 12.5 to 150 (≈ 29.4 to 353 µM) | 12.5 to 150 (≈ 29.4 to 353 µM) | 1 to 3.5 (≈ 2.36 to 8.24 µM) | 3.5 to 12.5 (≈ 8.24 to 29.4 µM) | 12.5 to 150 (≈ 29.4 to 353 µM) | 3.5 to 12.5 (≈ 8.24 to 29.4 µM) | 12.5 to 150 (≈ 29.4 to 353 µM) | < 1 | 3.5 to 12.5 (≈ 8.24 to 29.4 µM) | 12.5 to 150 (≈ 29.4 to 353 µM) | 1 to 3.5 (≈ 2.36 to 8.24 µM) | 12.5 to 150 (≈ 29.4 to 353 µM) | 12.5 to 150 (≈ 29.4 to 353 µM) | 1 to 3.5 (≈ 2.36 to 8.24 µM)
10 | CCc1c(-c2ccc3c(c2)cc(CNC(C)C)n3C)[nH]c(=O)c(C(=O)O)c1O [Cpd 199, 5-ethyl-4-hydroxy-6-(2-((isopropylamino)methyl)-1-methyl-1H-indol-5-yl)-2-oxo-1,2-dihydropyridine-3-carboxylic acid] | 12.5 to 150 (≈ 32.6 to 391 µM) | 1 to 3.5 (≈ 2.61 to 9.13 µM) | < 1 | 1 to 3.5 (≈ 2.61 to 9.13 µM) | 3.5 to 12.5 (≈ 9.13 to 32.6 µM) | < 1 | 3.5 to 12.5 (≈ 9.13 to 32.6 µM) | < 1 | < 1 | < 1 | < 1 | 3.5 to 12.5 (≈ 9.13 to 32.6 µM) | 3.5 to 12.5 (≈ 9.13 to 32.6 µM) | < 1
11 | CCc1c(-c2ccc3c(c2)cc(CNCC2CCCN(C)C2)n3C)[nH]c(=O)c(C(=O)O)c1O.Cl.Cl (stereo not shown) [Cpd 231, 5-ethyl-4-hydroxy-6-(1-methyl-2-(((1-methylpiperidin-3-yl)methylamino)methyl)-1H-indol-5-yl)-2-oxo-1,2-dihydropyridine-3-carboxylic acid dihydrochloride] | 12.5 to 150 | 12.5 to 150 | 1 to 3.5 | 1 to 3.5 | 12.5 to 150 | 1 to 3.5 | 12.5 to 150 | < 1 | 3.5 to 12.5 | 3.5 to 12.5 | 1 to 3.5 | 12.5 to 150 | 12.5 to 150 | 1 to 3.5
